Literature values in patent publication US20210360928A1, “ANTIMICROBIAL/ANTIVIRAL NONWOVEN AND APPLICATIONS OF THE SAME” (priority 2020, published 2021).

In the case of [Cl][Ag] [silver chloride], the solubility in water is given as “unusually insoluble in water”.
